The source of these data is patent publication US20060276464A1, “Diarylsulfone sulfonamides and use thereof” (Wyeth, priority 2005, published 2006).

Series [1] concerns the target T1, SFRP-1 (Homo sapiens, UniProt Q8N474).
T1 sequence (Q8N474 32-314): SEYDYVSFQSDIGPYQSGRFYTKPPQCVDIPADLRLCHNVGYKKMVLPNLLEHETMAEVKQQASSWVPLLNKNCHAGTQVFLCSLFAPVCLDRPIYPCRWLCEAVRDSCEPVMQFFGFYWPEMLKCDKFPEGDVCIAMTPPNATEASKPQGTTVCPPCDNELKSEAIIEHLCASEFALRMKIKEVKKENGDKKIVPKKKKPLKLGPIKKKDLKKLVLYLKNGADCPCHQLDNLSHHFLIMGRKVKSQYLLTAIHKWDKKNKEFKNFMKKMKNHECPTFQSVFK
Description: Cell-based assay for in vitro measurement of SFRP-1/SARP2 antagonist activity (U2OS cells co-transfected with 16x TCF-tk-Luciferase reporter, Wnt and hSFRP-1).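 On all read-outs here: U2OS cells co-transfected with a TCF-tk luciferase reporter, a Wnt vector, hSFRP-1 or empty vector and CMV-βgal, luciferase luminescence read in cell lysates alongside βgal activity.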 As to conditions: for fold induction at 10 µM: U2OS, read-out: Fold Induction with SFRP-1, U2OS cells, single dose 10 μM, luciferase reporter, fold induction over SFRP-1 control. Background: A reporter such as luciferase makes a cellular process visible.

The target in series [2] is T1, SFRP-1. Description: Fluorescence polarization binding assay (competitive displacement of a probe compound from SFRP-1).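 Further: test compound competes with a fluorescent probe held by SFRP-1, seen as a drop in probe anisotropy after incubation in darkness, with anisotropy as function of rising compound dose.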 As to conditions: fluorescence anisotropy, 45 nM SFRP-1, 20 nM probe.

By EC50 is commonly meant the concentration giving half of the maximal effect. A high value points to a less potent agent. A word on the IC50: it is the concentration at which inhibition is half-maximal. A lower IC50 goes with inhibition by little substance. Regarding `CN(CCNS(=O)(=O)c1cc(S(=O)(=O)c2ccccc2)ccc1C(F)(F)F)C(=O)Nc1cccnc1` [Example 827, N-(2-{methyl[(pyridin-3-ylamino)carbonyl]amino}ethyl)-5-(phenylsulfonyl)-2-(trifluoromethyl)benzenesulfonamide], in series [1], the EC50 was found to be 1710 nM and the fold induction at 10 µM came out at 3.5. The IC50 in series [2] came out at 250 nM.
For the compound `COc1ccc(NC(=O)N(C)CCNS(=O)(=O)c2cc(S(=O)(=O)c3ccccc3)ccc2C(F)(F)F)c(OC)c1` [Example 828, N-{2-[{[(2,4-dimethoxyphenyl)amino]carbonyl}(methyl)amino]ethyl}-5-(phenylsulfonyl)-2-(trifluoromethyl)benzenesulfonamide], in series [1], a half-maximal response (EC50) required 2360 nM and the fold induction at 10 µM is 2.8. Moreover, the IC50 in series [2] was determined as 300 nM.
Taken in the same sequence, the figures for `CN(CCNS(=O)(=O)c1cc(S(=O)(=O)c2ccccc2)ccc1C(F)(F)F)C(=O)NC(C)(C)C` [Example 829, N-{2-[[(tert-butylamino)carbonyl](methyl)amino]ethyl}-5-(phenylsulfonyl)-2-(trifluoromethyl)benzenesulfonamide] were 1320 nM, 2.7 and 400 nM.
For `COc1ccc(NC(=O)N(C)CCNS(=O)(=O)c2cc(S(=O)(=O)c3ccccc3)ccc2C(F)(F)F)cc1` [Example 830, N-{2-[{[(4-methoxyphenyl)amino]carbonyl}(methyl)amino]ethyl}-5-(phenylsulfonyl)-2-(trifluoromethyl)benzenesulfonamide] the same measures were 1870 nM, 3.3 and 600 nM.
For `CCCCNC(=O)N(C)CCNS(=O)(=O)c1cc(S(=O)(=O)c2ccccc2)ccc1C(F)(F)F` [Example 831, N-(2-[[(butylamino)carbonyl](methyl)amino]ethyl}-5-(phenylsulfonyl)-2-(trifluoromethyl)benzenesulfonamide] the same measures were 1460 nM, 3.7 and 260 nM.
With `CN(CCNS(=O)(=O)c1cc(S(=O)(=O)c2ccccc2)ccc1C(F)(F)F)C(=O)Nc1ccc(F)cc1F` [Example 832, N-{2-[{[(2,4-difluorophenyl)amino]carbonyl}(methyl)amino]ethyl}-5-(phenylsulfonyl)-2-(trifluoromethyl)benzenesulfonamide], in series [1], the midpoint of the response, the EC50, lay at 2190 nM and the fold induction at 10 µM was 3.4. Besides, the IC50 in series [2] was 250 nM.
Taken in the same sequence, the figures for `CN(CCNS(=O)(=O)c1cc(S(=O)(=O)c2ccccc2)ccc1C(F)(F)F)C(=O)N1CCCC1` [Example 833, N-methyl-N-[2-({[5-(phenylsulfonyl)-2-(trifluoromethyl)phenyl]sulfonyl}amino)ethyl]pyrrolidine-1-carboxamide] were 1260 nM, 3.4 and 400 nM.
For `CCN(CC)C(=O)N(C)CCNS(=O)(=O)c1cc(S(=O)(=O)c2ccccc2)ccc1C(F)(F)F` [Example 834, N-{2-[[(diethylamino)carbonyl](methyl)amino]ethyl}-5-(phenylsulfonyl)-2-(trifluoromethyl)benzenesulfonamide] the same measures were 1490 nM, 3 and 400 nM.
As for `CN(CCNS(=O)(=O)c1cc(S(=O)(=O)c2ccccc2)ccc1C(F)(F)F)C(=O)N1CCOCC1` [Example 835, N-methyl-N-[2-({[5-(phenylsulfonyl)-2-(trifluoromethyl)phenyl]sulfonyl}amino)ethyl]morpholine-4-carboxamide], in series [1], the fold induction at 10 µM was determined as 3.3. For the same compound, in series [2], the IC50 is 1000 nM.
For `CN(CCNS(=O)(=O)c1cc(S(=O)(=O)c2ccccc2)ccc1C(F)(F)F)C(=O)N(C)c1ccccc1` [Example 836, N-[2-(methyl{[methyl(phenyl)amino]carbonyl}amino)ethyl]-5-(phenylsulfonyl)-2-(trifluoromethyl)benzenesulfonamide], in series [1], the response was half-maximal at 1990 nM (EC50) and the fold induction at 10 µM was found to be 2.8. In series [2], the IC50 turned out to be 210 nM.
For `CN(CCNS(=O)(=O)c1cc(S(=O)(=O)c2ccccc2)ccc1C(F)(F)F)C(=O)c1ccco1` [Example 837, N-Methyl-N-[2-({[5-(phenylsulfonyl)-2-(trifluoromethyl)phenyl]sulfonyl}amino)ethyl]-2-furamide], in series [1], the EC50 is 644 nM and the fold induction at 10 µM came out at 3.4. This compound also registered an IC50 in series [2] of 180 nM.
Take `CN(CCNS(=O)(=O)c1cc(S(=O)(=O)c2ccccc2)ccc1C(F)(F)F)C(=O)c1ccc(C(C)(C)C)cc1` [Example 838, 4-tert-Butyl-N-methyl-N-[2-({[5-(phenylsulfonyl)-2-(trifluoromethyl)phenyl]sulfonyl}amino)ethyl]benzamide]: in series [1], the fold induction at 10 µM turned out to be 2.5. In addition, in series [2], the IC50 is 1200 nM.
As to `CN(CCNS(=O)(=O)c1cc(S(=O)(=O)c2ccccc2)ccc1C(F)(F)F)C(=O)c1ccccc1OC(F)(F)F` [Example 839, N-Methyl-N-[2-({[5-(phenylsulfonyl)-2-(trifluoromethyl)phenyl]sulfonyl}amino)ethyl]-2-(trifluoromethoxy)benzamide], in series [1], a half-maximal effect (EC50) was put at 2380 nM and the fold induction at 10 µM is 3.5. The compound further came in with an IC50 in series [2] of 300 nM.
In the case of `O=S(=O)(NC1CCNC1)c1cc(S(=O)(=O)c2ccccc2)ccc1C(F)(F)F` (stereo not shown) [Example 840, 5-(phenylsulfonyl)-N-pyrrolidin-3-yl-2-(trifluoromethyl)benzenesulfonamide], in series [1], the fold induction at 10 µM is 2.9. Also, the IC50 in series [2] is 800 nM.
`Cc1ccc(S(=O)(=O)c2ccc(F)cc2)cc1S(=O)(=O)NC1C[C@@H](C)O[C@@H](C)C1` (stereo partly drawn) [Example 841, N-[(2R*,4S*,6S*)-2,6-dimethyltetrahydro-2H-pyran-4-yl]-5-[(4-fluorophenyl)sulfonyl]-2-methylbenzenesulfonamide]: in series [1] (U2OS cells, single dose 10 μM, luciferase reporter, fold induction over SFRP-1 control), the “Fold Induction with SFRP-1” value is 1.6. In series [2], this compound registered an IC50 of 18000 nM.
With `CNc1ccc(S(=O)(=O)c2ccc(C(F)(F)F)c(S(=O)(=O)NC3CCNCC3)c2)cc1` [Example 842, 5-{[4-(methylamino)phenyl]sulfonyl}-N-piperidin-4-yl-2-(trifluoromethyl)benzenesulfonamide], in series [1], the EC50 was found to be 670 nM and the fold induction at 10 µM stood at 4.2. In series [2], this compound came in with an IC50 of 190 nM.
For `CN(C)c1ccc(S(=O)(=O)c2ccc(C(F)(F)F)c(S(=O)(=O)NC3CCNCC3)c2)cc1` [Example 843, 5-{[4-(dimethylamino)phenyl]sulfonyl}-N-piperidin-4-yl-2-(trifluoromethyl)benzenesulfonamide] the same measures were 2010 nM, 4.7 and 260 nM.
Taken in the same sequence, the figures for `O=S(=O)(NC1CCNCC1)c1cc(S(=O)(=O)c2ccc(NCCO)cc2)ccc1C(F)(F)F` [Example 844, 5-({4-[(2-hydroxyethyl)amino]phenyl}sulfonyl)-N-piperidin-4-yl-2-(trifluoromethyl)benzenesulfonamide] were 500 nM, 4.4 and 160 nM.
Taken in the same sequence, the figures for `O=S(=O)(NCCn1ccnc1)c1cc(S(=O)(=O)c2ccccc2F)ccc1C(F)(F)F` [Example 845, 5-[(2-fluorophenyl)sulfonyl]-N-[2-(1H-imidazol-1-yl)ethyl]-2-(trifluoromethyl)benzenesulfonamide] were 807 nM, 3.8 and 500 nM.
Consider `CN(CCNS(=O)(=O)c1cc(S(=O)(=O)c2ccccc2)ccc1C(F)(F)F)C(=O)C1CCCCC1` [Example 846, N-methyl-N-[2-({[5-(phenylsulfonyl)-2-(trifluoromethyl)phenyl]sulfonyl}amino)ethyl]cyclohexanecarboxamide], for which, in series [1], the EC50 came to 2670 nM and the fold induction at 10 µM came out at 3.2. Besides, the IC50 in series [2] stood at 300 nM.
Turning to `CN(CCNS(=O)(=O)c1cc(S(=O)(=O)c2ccccc2)ccc1C(F)(F)F)C(=O)c1ccc(C(F)(F)F)c(F)c1` [Example 847, 3-Fluoro-N-methyl-N-[2-({[5-(phenylsulfonyl)-2-(trifluoromethyl)phenyl]sulfonyl}amino)ethyl]-4-(trifluoromethyl)benzamide], the fold induction at 10 µM in series [1] was 2.4. The same compound displayed an IC50 in series [2] of 2200 nM.
On to `COC(=O)c1ccc(C(=O)N(C)CCNS(=O)(=O)c2cc(S(=O)(=O)c3ccccc3)ccc2C(F)(F)F)cc1` [Example 848, Methyl 4-({methyl[2-({[5-(phenylsulfonyl)-2-(trifluoromethyl)phenyl]sulfonyl}amino)ethyl]amino}carbonyl)benzoate], for which, in series [1], the EC50 stood at 1640 nM and the fold induction at 10 µM stood at 3.6. The compound also came in with an IC50 in series [2] of 700 nM.
Taken in the same sequence, the figures for `CN(CCNS(=O)(=O)c1cc(S(=O)(=O)c2ccccc2)ccc1C(F)(F)F)C(=O)c1cccnc1` [Example 849, N-Methyl-N-[2-({[5-(phenylsulfonyl)-2-(trifluoromethyl)phenyl]sulfonyl}amino)ethyl]nicotinamide] were 2100 nM, 3.9 and 700 nM.
`CN(CCNS(=O)(=O)c1cc(S(=O)(=O)c2ccccc2)ccc1C(F)(F)F)C(=O)c1ccncc1` [Example 850, N-Methyl-N-[2-({[5-(phenylsulfonyl)-2-(trifluoromethyl)phenyl]sulfonyl}amino)ethyl]isonicotinamide]: in series [1], the EC50 worked out at 1520 nM and the fold induction at 10 µM turned out to be 3.5. Also, the IC50 in series [2] stood at 600 nM.
